Data: patent US8603986B2, “Compounds and methods for modulating cadherin-mediated processes” (McGill University, priority 2005, dated 2013)
Marks after values point to notes of the source that are not given here.

Columns and labels:
[1] = biological target: T1, N-cadherin/Fc chimeric protein (Homo sapiens, UniProt P19022); assay: Table 8 summary: peptide binds to N-cad/Fc; assay type: binding; set-up: key: +: yes; −: no
T1 construct: extracellular domain of human N-cadherin (Asp160-Ala724); purchased R&D Systems, Minneapolis, Minn
T1 sequence (P19022 160-724): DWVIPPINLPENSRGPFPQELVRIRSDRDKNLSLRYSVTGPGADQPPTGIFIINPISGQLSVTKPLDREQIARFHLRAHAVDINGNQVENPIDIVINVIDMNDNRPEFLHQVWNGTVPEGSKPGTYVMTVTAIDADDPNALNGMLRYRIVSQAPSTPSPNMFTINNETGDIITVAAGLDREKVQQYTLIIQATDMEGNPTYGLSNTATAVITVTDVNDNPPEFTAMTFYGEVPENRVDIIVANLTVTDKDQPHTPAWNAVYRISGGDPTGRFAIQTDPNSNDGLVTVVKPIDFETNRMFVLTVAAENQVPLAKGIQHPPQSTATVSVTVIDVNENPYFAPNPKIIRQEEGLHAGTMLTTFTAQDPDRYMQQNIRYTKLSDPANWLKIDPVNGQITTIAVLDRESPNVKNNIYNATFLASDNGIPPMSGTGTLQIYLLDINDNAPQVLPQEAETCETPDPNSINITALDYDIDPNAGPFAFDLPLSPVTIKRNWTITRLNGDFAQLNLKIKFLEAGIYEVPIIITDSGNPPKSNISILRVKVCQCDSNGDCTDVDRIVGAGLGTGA

[2] = biological target: T2, E-cadherin/Fc chimeric protein (Homo sapiens, UniProt P12830); assay: Table 8 summary: peptide binds to E-cad/Fc; assay type: binding; set-up: key: +: yes; −: no
T2 construct: extracellular domain of human E-cadherin (Asp155-Ile707); purchased R&D Systems, Minneapolis, Minn
T2 sequence (P12830 155-707): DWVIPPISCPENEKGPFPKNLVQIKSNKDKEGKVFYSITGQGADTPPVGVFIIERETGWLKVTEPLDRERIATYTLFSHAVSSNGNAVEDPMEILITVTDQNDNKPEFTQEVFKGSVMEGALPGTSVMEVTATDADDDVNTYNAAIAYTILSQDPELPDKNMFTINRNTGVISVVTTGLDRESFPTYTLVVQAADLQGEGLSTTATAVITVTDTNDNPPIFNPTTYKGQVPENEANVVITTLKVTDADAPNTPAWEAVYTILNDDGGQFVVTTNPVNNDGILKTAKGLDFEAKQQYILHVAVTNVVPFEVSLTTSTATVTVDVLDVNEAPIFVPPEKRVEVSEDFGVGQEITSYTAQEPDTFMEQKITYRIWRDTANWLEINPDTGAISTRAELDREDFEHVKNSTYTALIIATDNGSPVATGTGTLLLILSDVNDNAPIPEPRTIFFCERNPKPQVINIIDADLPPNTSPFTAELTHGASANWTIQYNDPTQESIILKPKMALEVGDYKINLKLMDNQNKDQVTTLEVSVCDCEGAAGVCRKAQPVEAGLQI

[3] = tested on: MCF-7 human breast cancer cells; assay: Disruption of MCF-7 cell adhesion; assay type: cell-based; set-up: key to Peptide Disrupts Adhesion of MCF-7 cells: +: yes; −: no; conditions: for Peptide Disrupts Adhesion of MCF-7 cells: Table 8 summary
Method: MCF-7 human breast cancer cells (kind gift from Dr. Riaz Farookhi, McGill University, Montreal, Quebec) were cultured in the same medium as SKOV3 but supplemented with 1 mM sodium pyruvate.
(§1) Depending on their solubility, peptides were dissolved directly in culture medium and added to confluent cell cultures at the indicated concentration, or they were dissolved in dimethylformamide (DMF) to obtain a 100× concentrated solution or in water to obtain a 10× concentrated solution. The peptide stock solutions were further diluted with culture medium to a final working concentration and added to confluent cell cultures. Culture medium containing 1% solvent was used as a control. At the end of the treatment, cells were either examined by phase contrast microscopy, or fixed with 4% paraformaldehyde in PBS and stained with hematoxylin prior to light microscopic examination.

[4] = tested on: SKOV3 human ovarian cancer cells; assay: Disruption of SKOV3 cell adhesion in confluent cultures; assay type: cell-based; set-up: key to Peptide Disrupts Adhesion of SKOV3 cells: +: yes; −: no; conditions: for Peptide Disrupts Adhesion of SKOV3 cells: Table 8 summary
Method: SKOV3 human ovarian cancer cells (kind gift from Dr. Riaz Farookhi, McGill University, Montreal, Quebec) were cultured in MEM containing 1.25 μg/ml Fungizone, 100 U/ml penicillin 100 μg/ml streptomycin, 0.1 mM nonessential amino acids, 2 mM L-glutamine, 10 μg/ml ml gentamicin and 10% fetal bovine serum. All culture reagents were purchased from GIBCO (Burlington, ON). To obtain confluent cell cultures, 100,000 cells per well were plated onto a 4 well slide (NalgeNunc, Naperville, Ill.) and incubated for 24 h at 37° C., in a humidified atmosphere (5% CO2).
as §1
Confluent cultures of SKOV3 cells were incubated in the presence of individual peptides.

[5] = tested on: Human Umbilical Vein Endothelial Cells (HUVEC); assay: Disruption of HUVEC adhesion; assay type: cell-based; set-up: key to Peptide Disrupts Adhesion of HUVEC: +: yes; −: no; conditions: for Peptide Disrupts Adhesion of HUVEC: Table 8 summary
Method: (§2) Human Umbilical Vein Endothelial Cells (HUVEC) and Human Dermal Microvascular Endothelial Cells (HMVEC-d) were purchased from Cambrex Bio Science Walkersville, Inc. Clonetics EGM-2 and EGM-2-MV Bulletkits (Cambrex Bio Science Walkersville, Inc) were used to culture HUVEC and HMVEC-d respectively. Cells (40,000 per well) were plated onto a 4 well slide (NalgeNunc, Naperville, Ill.) and incubated at 37° C., in a humidified atmosphere (5% CO2).
as §1

[6] = biological target: T1, N-cadherin/Fc chimeric protein; assay: Surface plasma resonance (Biacore) analysis on N-cadherin/Fc; assay type: binding
Method: (§3) The binding of representative peptide modulating agents to either N- or VE-cadherin/Fc chimeric proteins was assessed using a BIAcore X™ Biosensor (Pharmacia Ltd., Sweden). Goat anti-human IgG recognizing N- and VE-cadherin/Fc chimeric proteins (R&D Systems, Minneapolis, Minn.) was immobilized on a CM5 sensor chip (Biacore S51) using standard amine-coupling method at 25° C. HBS-P buffer (10 mM HEPES, 0.15 M NaCl, 0.005% p20, pH 7.4) was used as the running buffer. The carboxymethyl dextran surface was activated with a 7 min injection of a 1:1 ratio of 0.4 M EDC and 0.1 M NHS. The goat anti-human IgG (Caltag Lab.) was coupled to the surface with a 7 min injection diluted in 10 mM sodium acetate, pH 5.0 to a final concentration 80 ug/ml. Remaining activated groups were blocked with a 7 min injection of 1 M ethanolamine, pH 8.5. N- and VE-cadherin/Fc chimeric proteins were dissolved in buffer containing 50 mM Tris HCl, 150 mM NaCl, and 1.2 mM CaCl2 pH 7.5 to a concentration of 0.2 μM and captured on spots 1 and 2 at a flow rate of 30 μl/min for 30 min with resulting density 927 RU for N-cadherin/Fc chimeric protein and 1008 RU for VE-cadherin/Fc chimeric protein.
The linear peptide H-SWTLYTPSGQSK-NH2 (SEQ ID NO: 16) and the control linear peptide H-SRTLYTPSGQSK-NH2 (SEQ ID NO: 58) were passed over surfaces coated with captured N- and VE-cadherin/Fc chimeric proteins in running buffer containing 50 mM Tris-HCl, 150 mM NaCl, and 1.2 mM CaCl2, pH 7.5 at concentrations ranging from 100-1.56 uM. The experiment was performed at a flow rate 90 ul/min at 25° C. […] All responses were referenced for reference surface and blank injections of running buffer.

[7] = biological target: T3, VE-cadherin/Fc chimeric protein (Homo sapiens, UniProt P33151); assay: Surface plasma resonance (Biacore) analysis on VE-cadherin/Fc; assay type: binding; conditions: 100-1.56 uM
T3 construct: purchased R&D Systems, Minneapolis, Minn
Method: as §3, with “protein. […]” for “protein.”

[8] = tested on: Human Dermal Microvascular Endothelial Cells (HMVEC-d); assay: Disruption of HMVEC adhesion; assay type: cell-based; set-up: key to Peptide Disrupts Adhesion of HMVEC: +: yes; −: no; conditions: for Peptide Disrupts Adhesion of HMVEC: Table 8 summary
Method: as §2, §1

[9] = 1 mg/ml medium, up to 1 h incubation
[10] = confluent cultures, concentration not given

T3 sequence (P33151 with tags, fused parts or gaps limits assumed, species assumed): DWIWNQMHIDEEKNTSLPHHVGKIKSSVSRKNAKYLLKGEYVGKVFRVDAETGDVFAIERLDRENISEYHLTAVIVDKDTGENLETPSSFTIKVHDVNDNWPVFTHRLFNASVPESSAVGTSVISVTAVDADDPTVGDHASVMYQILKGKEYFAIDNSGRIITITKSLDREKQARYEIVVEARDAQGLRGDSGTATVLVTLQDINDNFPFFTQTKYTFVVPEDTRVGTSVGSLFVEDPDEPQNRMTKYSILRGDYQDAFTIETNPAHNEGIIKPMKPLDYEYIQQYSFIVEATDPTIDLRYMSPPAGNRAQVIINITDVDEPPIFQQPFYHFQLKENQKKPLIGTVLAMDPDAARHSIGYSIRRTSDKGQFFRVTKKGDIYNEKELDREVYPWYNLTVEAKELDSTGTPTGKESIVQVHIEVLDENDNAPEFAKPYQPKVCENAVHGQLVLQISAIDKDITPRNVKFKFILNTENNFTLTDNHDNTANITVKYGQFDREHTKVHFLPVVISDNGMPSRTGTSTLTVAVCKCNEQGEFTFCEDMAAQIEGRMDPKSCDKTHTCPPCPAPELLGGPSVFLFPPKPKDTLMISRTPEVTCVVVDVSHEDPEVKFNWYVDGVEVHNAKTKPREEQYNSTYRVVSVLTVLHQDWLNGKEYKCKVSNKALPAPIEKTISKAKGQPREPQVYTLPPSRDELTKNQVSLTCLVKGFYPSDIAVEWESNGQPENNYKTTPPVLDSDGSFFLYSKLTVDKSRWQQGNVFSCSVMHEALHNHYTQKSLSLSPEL

Row | Substance | Peptide Binds to N-cad/Fc [1] | Peptide Binds to E-cad/Fc [2] | Peptide Disrupts Adhesion of MCF-7 cells [3] | Peptide Disrupts Adhesion of SKOV3 cells [4] | effect on HUVEC adhesion [5, 9] | Peptide Disrupts Adhesion of HUVEC [5] | also measured
1 | H-WYVCVGAH-NH2 | +# | −## | − | + |  |  | effect on MCF-7 cell adhesion ([3]; 100 μg/ml): did not affect MCF-7 cell adhesion; effect on SKOV3 cell adhesion and morphology ([4]; 100 and 150 μg/ml (tested 50, 100 and 150 μg/ml medium), 24 h): capable of disrupting cell adhesion and altering cell morphology; culture time after which the effect on SKOV3 cell adhesion was evident ([4]; more pronounced after 24 h): 9 h
2 | H-WELRVSSP-NH2 | + | − |  | + |  |  | effect on cell adhesion and cell morphology ([4]; 0.5 mg/ml, SKOV3 per b307 and Table 8): capable of disrupting cell adhesion and altering cell morphology
3 | H-SWELYYPLRANL-NH2 | + | + | + | + |  |  | effect on MCF-7 cell adhesion ([3]; 1 mg/ml): disrupted; effect on SKOV3 cell adhesion ([4]; 1 mg/ml): disrupted
4 | H-EWMIHYDSALTS-NH2 | + | + | + | + |  |  | effect on MCF-7 cell adhesion ([3]; 1 mg/ml): disrupted; effect on SKOV3 cell adhesion ([4]; 1 mg/ml): disrupted
5 | H-SWTLYTPSGQSK-NH2 [H-SWTLYTPSGQSK-NH2] | + | − | − | + | disrupted HUVEC adhesion | + | effect on HUVEC adhesion ([5]; 0.062 mg/ml, 1 h incubation): moderate activity; incubation time after which HUVEC adhesion was disrupted ([5]; 1 mg/ml medium): 5 min; incubation time of maximum effect on HUVEC adhesion ([5]; 1 mg/ml medium): 1 h; peptide concentrations disrupting HUVEC adhesion ([5]; after 1 h incubation, dose-dependent): ≥ 0.125 mg/mL; Kd ([6]; 25° C., 1.2 mM CaCl2): 66 µM; kd ([6]; 25° C., 1.2 mM CaCl2): 0.407(8) s^−1; kon ([6]; pH 7.5, 25° C., 1.2 mM CaCl2, read-out: ka): 6100 M⁻¹ s⁻¹; effect on MCF-7 cell adhesion ([3]; concentration not given): did not affect MCF-7 cell adhesion; effect on SKOV3 cell adhesion [4, 10]: disrupted SKOV3 cell adhesion; binding to VE-cadherin/Fc chimeric protein [7]: did not bind; effect on HMVEC adhesion ([8]; 0.062 mg/ml): disrupted; effect on HMVEC adhesion ([8]; 0.125 mg/ml): more pronounced effects; effect on HMVEC adhesion ([8]; 0.5 mg/ml and higher): still stronger effects; Peptide Disrupts Adhesion of HMVEC [8]: +
6 | H-HWYITTGPVREK-NH2 | + | − |  |  | had no effect on HUVEC adhesion | − | 
7 | H-SRTLYTPSGQSK-NH2 [reference compound] | − |  |  | − | had no biological activity | − | binding to N-cadherin/Fc chimeric protein ([6]; 100-1.56 uM): did not bind; effect on SKOV3 cell adhesion [4, 10]: had no effect; binding to VE-cadherin/Fc chimeric protein [7]: did not bind; Peptide Disrupts Adhesion of HMVEC [8]: −; effect on HMVEC adhesion ([8]; highest concentration of 1 mg/ml): had no biological activity
8 | H-SWTLYTPSGQSK-(succinyl-PEG5000-OMe)—NH2 (H-SWTLYTPSGQSK-NH2; also: succinyl-PEG5000-OMe attached, site not given here) |  |  |  |  |  |  | activity on HUVEC adhesion ([5]; 4.7 mg/ml): strong activity; incubation time within which HUVEC adhesion was disrupted ([5]; 4.7 mg/ml): within one hour
